# Assay results reported in patent publication US8513219B2, “Substituted phosphonates and their use in decreasing amyloid aggregates” (Queen Mary & Westfield College, University of London, priority 2007, dated 2013).
# Where two headings read alike, the source gives them in different places.
# Legend:
# [1] = tested on: amyloid accumulation in H4 cells; assay: H4 cell amyloid accumulation (6E10 antibody, HRP/OPD absorbance); type: cell-based, human
# [2] = tested on: H4 cells (human neuroblastoma cell line)
# [3] = tested on: L929 immortalised fibroblast cell line; assay: MTT colorimetric toxicity assay in L929 fibroblast cell line; type: cell-based; details: L929, 0.3 nM to 1 μM, up to 24 h exposure
# Protocol: A first assessment of the potential toxicity of the substituted phosphonates was carried out in a non-neuronal cell line, using a tetrazolium salt (MTT) colorimetric assay, based on the method described by Mossman (1983), which gives a reflection of mitochondrial activity and cell integrity. The MTT [3-(4,5-dimethylthiazol-2-yl)-2,5-diphenyltetrazolium bromide] assay is based on the ability of a mitochondrial dehydrogenase enzyme from viable cells to cleave the tetrazolium rings of the pale yellow MTT and form dark blue formazan crystals which cannot cross cell membranes. The result is that healthy cells will accumulate more of the blue formazan crystals. […] They were then incubated for 2 h after addition of MTT (1 mg/ml) and the absorbance was read at 570 nm. […] The toxicity of the reference compound clioquinol (0.3 nM to 1 μM) was assessed under the same conditions, for comparison.
# A first assessment of toxicity of the substituted phosphonates was carried out in a non-neuronal cell line, using a tetrazolium salt (MTT) colorimetric assay, based on the method described by Mossman (1983), which gives a reflection of mitochondrial activity and cell integrity (FIGS. 6 and 7). The toxicity of the reference compound clioquinol (0.3 nM to 1 μM) was assessed under the same conditions, for comparison.
# [4] = tested on: β-amyloid plaques; design: species or system APP and APP/Tau transgenic mice; details: mouse, in vivo
# [5] = tested on: intracellular amyloid in H4 cells; assay: intracellular distribution of amyloid in H4 cells (6E10 immunofluorescence); type: cell-based, human; details: 1 μM, 5 days incubation, single dose
# [6] = H4 cells, 1 μM, average of 2-3 experiments
Compound,"amyloid reduction (% controls), 5 day repeated doses [1]","amyloid reduction (% controls), 5 day single dose [1]","cell survival (% controls), 5 day repeated doses [2]","cell survival (% controls), 5 day single dose [2]",toxicity as reflected in cell viability (MTT) [3],amyloid plaque load in brain [4],"accumulation of amyloid in H4 cells ([1]; 1 μM, 5 days)","amyloid reduction (% controls), 5 day repeated doses [1, 6]","amyloid reduction (% controls), 5 day single dose [1, 6]",intracellular amyloid labelling in H4 cells [5],"cell survival (% controls), 5 day repeated doses ([2]; 5 days, 1 μM)","cell survival (% controls), 5 day single dose ([2]; 5 days, 1 μM)",reduction of cell viability [2]
"CCOP(=O)(COc1ccc(NC(C)=O)cc1)OCC [Compound 25, Diethyl 4-acetamidophenoxy methylphosphonate]",62 % controls,24 % controls,97 % controls,98 % controls,,,,,,,,,
"CCOP(=O)(COc1ccccc1-c1nc2ccccc2s1)OCC [Compound 14, Diethyl 2-(2-benzthiazolyl)phenoxymethylphosphonate]",83 % controls,100 % controls,110 % controls,100 % controls,,,,,,,,,
"CCOP(=O)(COc1ccc2c(c1)[nH]c1ccccc12)OCC [Compound 17, Diethyl-2-carbazolyloxymethylphosphonate]",62 % controls,37 % controls,102 % controls,97 % controls,,,,,,,,,
"Oc1c(I)cc(Cl)c2cccnc12 [Clioquinol, reference compound]",,,,,neither clioquinol nor any of the substituted phosphonates screened showed any toxicity,"apparent decreased plaque load, and especially a reduced load of large aggregates",decreases the accumulation of amyloid,76 % controls,64 % controls,"reduced this intracellular accumulation in some of the cells, but brightly labelled areas could still be found",96 % controls,99 % controls,
"O=P([O-])([O-])Cn1c2ccccc2c2ccccc21.[Na+].[Na+] [Compound 20, Disodium N-carbazolylmethylphosphonate]",66 % controls,11 % controls,72 % controls,88 % controls,,,,,,,,,28%
